In US10035790B2, “RORγ modulators” (BRISTOL-MYERS SQUIBB COMPANY, priority 2012, dated 2018):

Each compound was assayed against T1, ligand binding domain of human RORγ (A262-S507) (Homo sapiens, UniProt P51449) (assay: General RORγ SPA binding assay (competition with [3H]25-hydroxycholesterol)). Conditions: RORγ SPA binding assay, inhibition of [3H]25-hydroxycholesterol binding; read-out: IC50.
T1 construct: made in house; host or cells: E. coli
T1 sequence (P51449 262-507): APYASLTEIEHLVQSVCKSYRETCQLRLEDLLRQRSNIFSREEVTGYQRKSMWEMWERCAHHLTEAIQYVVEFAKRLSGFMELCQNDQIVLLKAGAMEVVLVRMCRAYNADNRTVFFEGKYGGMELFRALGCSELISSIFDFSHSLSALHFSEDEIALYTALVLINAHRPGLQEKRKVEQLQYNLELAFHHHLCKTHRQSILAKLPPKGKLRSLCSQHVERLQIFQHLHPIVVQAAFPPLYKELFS
Outline: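 Step one: compound meets 50 nM nickel-purified, His-tagged protein from E. coli for 15 min at room temperature (PBS, 0.5% fatty acid free BSA). Step two: radioligand is added for another 15 min. Step three: SPA beads are added for 30 min before scintillation reading and IC50 fitting.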

In order of falling IC50:
1. CCC/C(=N/Oc1cccc(C(F)(F)F)c1)c1c(C)nc(C)nc1C1CCN(C(=O)Cc2c(F)cccc2F)CC1 [Compound B49, (1Z)-1-(4-{1-[(2,6-difluorophenyl)acetyl]piperidin-4-yl}-2,6-dimethylpyrimidin-5-yl)butan-1-one O-[3-(trifluoromethyl)phenyl]oxime]  1970 nM
2. Cc1ncc(/C(CO)=N/Oc2cccc(C(F)(F)F)c2)c(C2CCN(C(=O)Cc3c(F)cccc3F)CC2)n1 [Compound B28, (Z)-2-(2,6-difluorophenyl)-1-(4-(5-(2-hydroxy-1-((3-(trifluoromethyl)phenoxy)imino)ethyl)-2-methylpyrimidin-4-yl)piperidin-1-yl)ethanone]  696 nM
3. CSc1ncc(/C(C)=N/Oc2cccc(C(F)(F)F)c2)c(C2CCN(C(=O)Nc3c(F)cccc3F)CC2)n1 [Compound B50, N-(2,6-Difluorophenyl)-4-{2-(methylthio)-5-[(1E)-N-{[3-(trifluoromethyl)phenyl]oxy}ethanimidoyl]pyrimidin-4-yl}piperidine-1-carboxamide]  445 nM
4. CCC/C(=N\Oc1cccc(C(F)(F)F)c1)c1c(C)nc(C)nc1C1CCN(C(=O)Cc2c(F)cccc2F)CC1 [Compound B48, (1E)-1-(4-{1-[(2,6-difluorophenyl)acetyl]piperidin-4-yl}-2,6-dimethylpyrimidin-5-yl)butan-1-one O-[3-(trifluoromethyl)phenyl]oxime]  241 nM
5. C/C(=N\Oc1cccc(C(F)(F)F)n1)c1cnc(C)nc1C1CCN(C(=O)Nc2c(F)cccc2F)CC1 [Compound B38, N-(2,6-Difluorophenyl)-4-{2-methyl-5-[(1E)-N-{[6-(trifluoromethyl)pyridin-2-yl]oxy}ethanimidoyl]pyrimidin-4-yl}piperidine-1-carboxamide]  169 nM
6. C/C(=N\Oc1ccnc(C(F)(F)F)n1)c1cnc(C)nc1C1CCN(C(=O)Nc2c(F)cccc2F)CC1 [Compound B36, N-(2,6-Difluorophenyl)-4-{2-methyl-5-[(1E)-N-{[2-(trifluoromethyl)pyrimidin-4-yl]oxy}ethanimidoyl]pyrimidin-4-yl}piperidine-1-carboxamide]  158 nM
7. C/C(=N\Oc1cc(C)nc(C(F)(F)F)n1)c1cnc(C)nc1C1CCN(C(=O)Nc2c(F)cccc2F)CC1 [Compound B42, N-(2,6-difluorophenyl)-4-{2-methyl-5-[(1E)-N-{[6-methyl-2-(trifluoromethyl)pyrimidin-4-yl]oxy}ethanimidoyl]pyrimidin-4-yl}piperidine-1-carboxamide]  151 nM
8. Cc1nc(C)c(/C=N/Oc2cccc(C(F)(F)F)c2)c(C2CCN(C(=O)Nc3c(F)cccc3F)CC2)n1 [Compound B46, N-(2,6-Difluorophenyl)-4-{2,6-dimethyl-5-[(E)-({[3-(trifluoromethyl)phenyl]oxy}imino)methyl]pyrimidin-4-yl}piperidine-1-carboxamide]  106 nM
9. Cc1ncc(/C(CO)=N\Oc2ccnc(C(F)(F)F)n2)c(C2CCN(C(=O)Cc3c(F)cccc3F)CC2)n1 [Compound B26, (E)-2-(2,6-difluorophenyl)-1-(4-(5-(2-hydroxy-1-(((2-(trifluoromethyl)pyrimidin-4-yl)oxy)imino)ethyl)-2-methylpyrimidin-4-yl)piperidin-1-yl)ethanone]  95 nM
10. C/C(=N\Oc1ccnc(C(F)(F)F)n1)c1cnc(C)nc1C1CCN(C(=O)Nc2c(F)cccc2C(F)(F)F)CC1 [Compound B39, N-[2-Fluoro-6-(trifluoromethyl)phenyl]-4-{2-methyl-5-[(1E)-N-{[2-(trifluoromethyl)pyrimidin-4-yl]oxy}ethanimidoyl]pyrimidin-4-yl}piperidine-1-carboxamide]  93.3 nM
11. C/C(=N/Oc1cccc(C(F)(F)F)c1)c1cnc(C)nc1C1CCN(C(=O)Nc2c(F)cccc2F)CC1 [Compound B44, N-(2,6-Difluorophenyl)-4-{2-methyl-5-[(1Z)—N-{[3-(trifluoromethyl)phenyl]oxy}ethanimidoyl]pyrimidin-4-yl}piperidine-1-carboxamide]  84.9 nM
12. C/C(=N\Oc1cccc(C(F)(F)F)c1)c1cnc(C)nc1C1CCN(C(=O)Nc2c(F)cccc2F)C(C)C1 (centres unmarked) [Compound B47, N-(2,6-Difluorophenyl)-2-methyl-4-{2-methyl-5-[(1E)-N-{[3-(trifluoromethyl)phenyl]oxy}ethanimidoyl]pyrimidin-4-yl}piperidine-1-carboxamide]  76.4 nM
13. C/C(=N\Oc1ccnc(C(F)(F)F)c1)c1cnc(C)nc1C1CCN(C(=O)Nc2c(F)cccc2F)CC1 [Compound B37, N-(2,6-Difluorophenyl)-4-{2-methyl-5-[(1E)-N-{[2-(trifluoromethyl)pyridin-4-yl]oxy}ethanimidoyl]pyrimidin-4-yl}piperidine-1-carboxamide]  67.6 nM
14. Cc1ncc(/C=N/Oc2cccc(C(F)(F)F)c2)c(C2CCN(C(=O)Cc3c(F)cccc3F)CC2(F)F)n1 (centres unmarked) [Compound B33, (E)-4-(1-(2-(2,6-Difluorophenyl)acetyl)-3,3-difluoropiperidin-4-yl)-2-methylpyrimidine-5-carbaldehyde O-3-(trifluoromethyl)phenyl oxime]  36.7 nM
15. Cc1ncc(/C(CF)=N/Oc2ccnc(C(F)(F)F)n2)c(C2CCN(C(=O)Cc3c(F)cccc3F)CC2)n1 [Compound B27, (Z)-2-(2,6-difluorophenyl)-1-(4-(5-(2-fluoro-1-(((2-(trifluoromethyl)pyrimidin-4-yl)oxy)imino)ethyl)-2-methylpyrimidin-4-yl)piperidin-1-yl)ethanone]  35.8 nM
16. C/C(=N\Oc1cc(Cl)nc(C(F)(F)F)c1)c1cnc(C)nc1C1CCN(C(=O)Nc2c(F)cccc2F)CC1 [Compound B40, 4-{5-[(1E)-N-{[2-chloro-6-(trifluoromethyl)pyridin-4-yl]oxy}ethanimidoyl]-2-methylpyrimidin-4-yl}-N-(2,6-difluorophenyl)piperidine-1-carboxamide]  21.4 nM
17. Cc1ncc(/C(=N/Oc2ccnc(C(F)(F)F)c2)C(F)F)c(C2CCN(C(=O)Cc3c(F)cccc3F)CC2)n1 [Compound B32, (1Z)-1-(4-{1-[(2,6-Difluorophenyl)acetyl]piperidin-4-yl}-2-methylpyrimidin-5-yl)-2,2-difluoroethanone O-[2-(trifluoromethyl)pyridin-4-yl]oxime]  15.3 nM
18. Cc1ncc(/C(CF)=N/Oc2ccnc(C(F)(F)F)n2)c(C2CCN(C(=O)Cc3c(F)cccc3F)CC2(F)F)n1 (centres unmarked) [Compound B35, (Z)-1-(3,3-Difluoro-4-(5-(2-fluoro-1-(2-(trifluoromethyl)pyrimidin-4-yloxyimino)ethyl)-2-methylpyrimidin-4-yl)piperidin-1-yl)-2-(2,6-difluorophenyl)ethanone]  14.2 nM
19. C/C(=N\Oc1cccc(C(F)(F)F)c1)c1cnc(C)nc1C1CCN(C(=O)Nc2c(F)cccc2F)CC1 [Compound B43, N-(2,6-Difluorophenyl)-4-{2-methyl-5-[(1E)-N-{[3-(trifluoromethyl)phenyl]oxy}ethanimidoyl]pyrimidin-4-yl}piperidine-1-carboxamide]  13.5 nM
20. C/C(=N/Oc1cc(Cl)nc(C(F)(F)F)c1)c1cnc(C)nc1C1CCN(C(=O)Nc2c(F)cccc2F)CC1 [Compound B41, 4-{5-[(1Z)—N-{[2-chloro-6-(trifluoromethyl)pyridin-4-yl]oxy}ethanimidoyl]-2-methylpyrimidin-4-yl}-N-(2,6-difluorophenyl)piperidine-1-carboxamide]  12.6 nM
21. C/C(=N\Oc1ccnc(C(F)(F)F)c1)c1cnc(C)nc1C1CCN(C(=O)Cc2c(F)cccc2F)CC1(F)F (centres unmarked) [Compound B34, (E)-1-(3,3-Difluoro-4-(2-methyl-5-(1-(2-(trifluoromethyl)pyridin-4-yloxyimino)ethyl)pyrimidin-4-yl)piperidin-1-yl)-2-(2,6-difluorophenyl)ethanone]  12.5 nM
22. Cc1ncc(/C(CO)=N/Oc2ccnc(C(F)(F)F)n2)c(C2CCN(C(=O)Cc3c(F)cccc3F)CC2)n1 [Compound B25, (Z)-2-(2,6-difluorophenyl)-1-(4-(5-(2-hydroxy-1-(((2-(trifluoromethyl)pyrimidin-4-yl)oxy)imino)ethyl)-2-methylpyrimidin-4-yl)piperidin-1-yl)ethanone]  11.2 nM
23. Cc1ncc(/C=N/Oc2cccc(C(F)(F)F)c2)c(C2CCN(C(=O)Cc3c(F)cccc3F)CC2)n1 [Compound B30, (E)-4-(1-(2-(2,6-Difluorophenyl)acetyl)piperidin-4-yl)-2-methylpyrimidine-5-carbaldehyde O-3-(trifluoromethyl)phenyl oxime]  9.7 nM
24. C/C(=N\Oc1cccc(C(F)(F)F)c1)c1cnc(N)nc1C1CCN(C(=O)Nc2c(F)cccc2F)CC1 [Compound B51, 4-{2-Amino-5-[(1E)-N-{[3-(trifluoromethyl)phenyl]oxy}ethanimidoyl]pyrimidin-4-yl}-N-(2,6-difluorophenyl)piperidine-1-carboxamide]  8.6 nM
25. C/C(=N\Oc1cccc(C(F)(F)F)c1)c1cnc(C)nc1C1CCN(C(=O)Nc2c(F)cccc2C(F)(F)F)CC1 [Compound B45, N-[2-fluoro-6-(trifluoromethyl)phenyl]-4-{2-methyl-5-[(1E)-N-{[3-(trifluoromethyl)phenyl]oxy}ethanimidoyl]pyrimidin-4-yl}piperidine-1-carboxamide]  8 nM
26. Cc1nc(C)c(C=NOc2cccc(C(F)(F)F)c2)c(C2CCN(C(=O)Cc3c(F)cccc3F)CC2)n1 [Compound B31, 4-{1-[(2,6-Difluorophenyl)acetyl]piperidin-4-yl}-2,6-dimethylpyrimidine-5-carbaldehyde O-[3-(trifluoromethyl)phenyl]oxime]  3.4 nM
